Assay results: US20250025520A1, “MICROBE-BASED MODULATION OF SEROTONIN BIOSYNTHESIS” (The Regents of the University of California, priority 2014, published 2025)

Assays:
[1] = tested on: serum 5-HT; test: Serum 5-HT by ELISA; assay type: in vivo, mouse
Source text: (§1) Blood samples were collected by cardiac puncture and spun through SST vacutainers (Becton Dickinson) for serum separation or PST lithium hepararin vacutainers (Becton Dickinson, Franklin Lakes, NJ) for plasma separation. The entire length of the colon or 1 cm regions of the distal, medial and proximal colon of the small intestine were washed in PBS, flushed with PBS to remove luminal contents, and sonicated on ice in 10 s intervals at 20 mV in ELISA standard buffer supplemented with ascorbic acid (Eagle Biosciences, Nashua, NH). Serotonin levels were detected in sera and supernatant of tissue homogenates by ELISA according to the manufacturer's instructions (Eagle Biosciences, Nashua, NH). Readings from tissue samples were normalized to total protein content as detected by BCA assay (Thermo Pierce). Data compiled across multiple experiments are expressed as 5-HT concentrations normalized to SPF controls within each experiment.

[2] = tested on: colon 5-HT; test: Colon 5-HT by ELISA, normalized to total protein; assay type: in vivo, mouse; details: for effects of a single rectal injection on raising colon 5-HT levels: time course
Source text: as §1

[3] = tested on: RIN14B cells; test: RIN14B in vitro culture, 5-HT release; details: for 5-HT in RIN14B chromaffin cell cultures: α-tocopherol 8 uM, butyrate 100 uM, cholate 75 uM, deoxycholate 25 uM, p-aminobenzoate 1 uM, propionate 100 uM, tyramine 100 uM
[4] = tested on: TPH1; test: Intestinal qRT-PCR, colonic TPH1 expression relative to GAPDH; assay type: in vivo, mouse
Protocol: The entire length of the mouse colon, or 1 cm regions of the distal, medial and proximal of the mouse small intestine were washed in PBS, flushed with PBS to remove luminal contents, and homogenized in ice-cold Trizol for RNA isolation using the RNeasy Mini Kit with on-column genomic DNA-digest (Qiagen) and cDNA synthesis using iScript (Biorad). qRT-PCR was performed on an ABI 7900 thermocycler using SYBR green master mix with Rox passive reference dye (Roche) and validated primer sets obtained from Primerbank (Harvard).

[5] = tested on: TPH1 in RIN14B cells; test: RIN14B in vitro culture, TPH1 expression by qRT-PCR; details: colonic luminal filtrate, or 15 uM ionomycin; relative to vehicle-treated controls
[6] = tested on: SLC6A4; test: Intestinal qRT-PCR, colonic SLC6A4 expression relative to GAPDH; assay type: in vivo, mouse; details: Sp-colonized mice, PCPA intrarectally
[7] = tested on: colonic enterochromaffin cells (ECs); test: Immunofluorescence staining of 5-HT and CgA in colon; assay type: in vivo, mouse
Protocol: (§2) Mouse colon was cut into distal, medial and proximal sections, and 1 cm regions of the distal, medial and proximal small intestine were fixed in Bouin's solution (Sigma Aldrich) overnight at 4° C., washed and stored in 70% ethanol. Intestinal samples were then paraffin-embedded and cut into 10 um longitudinal sections by Pacific Pathology, Inc (San Diego, CA). Sections were stained using standard procedures. Briefly, slides were deparaffinized, and antigen retrieval was conducted for 1 hr in a 95° C. water bath in 10 mM sodium citrate, pH 6.0 or DAKO solution (Agilent Technologies). […] For 5-HT and CgA staining, numbers of positively-stained puncta were scored blindly, normalized to total area of intestinal mucosa using ImageJ software (NIH) (Schneider et al., Nature Methods 9:671-675 (2012)), and then averaged across biological replicates. For calretinin, cfos and 5HT4 staining, fluorescence intensity for individual stains was quantified and normalized to total area of intestinal submucosa and muscularis externa using ImageJ software. Colocalization was measured and analyzed using the Coloc2 plug-in for Fiji software described in Schindelin et al., Nature Methods 9:676-682 (2012). […]

[8] = tested on: platelets; test: Platelet aggregation assay, collagen stimulation, flow cytometry; assay type: in vivo, mouse; details: Sp-colonized mice, colonic PCPA injection
Protocol: Blood samples were collected by cardiac puncture, diluted with a 2× volume of HEPES medium (132 mM NaCl, 6 mM KCl, 1 mM MgSO4, 1.2 mM KH2PO4, 20 mM HEPES, 5 mM glucose; pH 7.4) and centrifuged through PST lithium hepararin vacutainers (Becton Dickinson). Expression of platelet activation markers was measured by flow cytometry (Nieswandt et al., Methods Mol. Biol. 272:255-268 (2004); Ziu et al., J. Mol. Cell. Cardiol. 52:1112-1121 (2012)). Briefly, PRP samples were supplemented with 1 mM CaCl2, and 1×10^6 platelets were stimulated with 10 μg/ml type-1 HORM collagen (Chronolog), and stained with anti-JON/APE, anti-P-selectin-FITC (Emfret Analytics), anti-CD63-PE (Biologend), anti-CD41-FITC (BD Biosciences) and anti-CD9-APC (Abcam) for 15 min at room temperature. Samples were then washed in PBS, fixed with 0.5% formaldehyde and analyzed using a FACS Calibur flow cytometer (BD Biosciences). Platelet aggregation assays were conducted according to methods described in (De Cuyper et al., Blood 121:070-e80 (2013)). Briefly, 4×10^6 platelets were stained separately with CD9-APC or CD9-PE (Abcam) for 15 minutes at room temperature and then washed with HEPES medium. Labeled platelets were mixed 1:1 and incubated for 15 minutes at 37° C., with shaking at 600 rpm. Platelets were then stimulated with 10 μg/ml type-1 collagen for 2 min and fixed in 0.5% formaldehyde for flow cytometry. […]

[9] = tested on: intrinsic afferent primary neurons (IPANs) of the myenteric plexus; test: c-fos and calretinin (Calb2) colocalization; assay type: in vivo, mouse; details: Sp-colonized mice treated with PCPA
Protocol: as §2

[10] = Tail bleed assay; assay type: in vivo, mouse; details: Sp-colonized mice, intrarectal PCPA
Protocol: Mice were anesthetized with isoflurane and the distal 6 mm portion of the tail was transected using a fresh razor blade. The tail was placed immediately at a 2 cm depth into a 50 mL conical tube containing saline pre-warmed to 37° C. (Liu et al., World J. Exp. Med. 2:30-36 (2012)). Time to bleeding cessation was recorded, with continued recording if re-bleeding occurred within 15 seconds of initial cessation and a maximum total bleed time of 5 minutes. Mice were sacrificed by CO2 immediately after the assay.

[11] = GF mice, oral supplementation in water 1.5 mg/ml, 2 weeks
[12] = GF mice, intrarectal injection: deoxycholate 125 mg/kg, α-tocopherol 2.25 mg/kg, PABA 1.37 μg/kg, tyramine 0.137 mg/kg, oleanolate 0.46 mg/kg, vs vehicle
[13] = GF mice colonized with hSp, PCPA treatment
[14] = Sp-colonized GF mice, PCPA intrarectally twice daily for 3 days

## N[C@@H](Cc1c[nH]c2ccc(O)cc12)C(=O)O [5-HTP, 5-hydroxytryptophan]
[1]; [11]
  serum 5-HT: sufficiently ameliorates deficits
[2]; [11]
  colon 5-HT: sufficiently ameliorates deficits

## Nc1ccc(C(=O)O)cc1 [PABA, p-aminobenzoate]
[1]; [12]
  serum 5-HT: Increases
[2]; [12]
  colon 5-HT: Increases
[3]
  5-HT in RIN14B chromaffin cell cultures: elevate 5-HT

## CC1(C)CC[C@]2(C(=O)O)CC[C@]3(C)C(=CC[C@@H]4[C@@]5(C)CC[C@H](O)C(C)(C)[C@@H]5CC[C@]43C)[C@@H]2C1 [oleanolate]
[1]; [12]
  serum 5-HT: no statistically significant effect
[2]; [12]
  colon 5-HT: no statistically significant effect

## deoxycholate
[1]; [12]
  serum 5-HT: sufficiently increases
[4]; GF mice, intrarectal deoxycholate 125 mg/kg, 1 hr post injection
  colonic TPH1 expression: elevations in colonic TPH1 expression
[2]; [12]
  colon 5-HT: sufficiently increases
[2]; GF mice
  effects of a single rectal injection on raising colon 5-HT levels: weak and transient
[3]
  5-HT in RIN14B chromaffin cell cultures: elevate 5-HT

## NCCc1ccc(O)cc1 [tyramine]
[1]; [12]
  serum 5-HT: Increases
[2]; [12]
  colon 5-HT: Increases
[3]
  5-HT in RIN14B chromaffin cell cultures: elevate 5-HT

## C[C@H](CCC(=O)O)C[C@H](C)C[C@H](C)C(=O)/C=C(\O)[C@H](C)C[C@H](C)C/C=C/[C@@H](C)[C@@H](O)[C@@H](C)[C@@H](O)C[C@@H]1CC[C@@](C)([C@H]2CC[C@@](C)([C@@H](C)O)O2)O1 [ionomycin, reference compound]
[3]; colonic luminal filtrate 1 hr at 37° C., or 15 uM ionomycin, relative to vehicle-treated controls
  5-HT released from RIN14B cells: stimulates 5-HT release
[5]
  TPH1 expression in RIN14B cells: no effect on TPH1 expression

## Cc1c(C)c2c(c(C)c1O)CC[C@@](C)(CCC[C@H](C)CCC[C@H](C)CCCC(C)C)O2 [α-tocopherol]
[1]; [12]
  serum 5-HT: Increases
[2]; [12]
  colon 5-HT: Increases
[2]; GF mice
  effects of a single rectal injection on raising colon 5-HT levels: weak and transient
[3]
  5-HT in RIN14B chromaffin cell cultures: elevate 5-HT

## Bacteroides fragilis
[1]; GF mice colonized, monoassociated or conventionalized, compared with GF and SPF controls
  serum 5-HT levels: deficits in serum 5-HT that are comparable to those seen in GF mice

## N[C@@H](Cc1c[nH]c2ccccc12)C(=O)O [Trp, tryptophan]
[1]; [11]
  serum 5-HT: no restorative effect
[2]; [11]
  colon 5-HT: no restorative effect

## C[C@H](CCC(=O)O)[C@H]1CC[C@H]2[C@@H]3[C@H](O)C[C@@H]4C[C@H](O)CC[C@]4(C)[C@H]3C[C@H](O)[C@]12C [cholate]
[3]
  5-HT in RIN14B chromaffin cell cultures: elevate 5-HT

## CCC(=O)O [propionate]
[3]
  5-HT in RIN14B chromaffin cell cultures: elevate 5-HT

## N[C@@H](Cc1ccc(Cl)cc1)C(=O)O (racemic) [PCPA, parachlorophenylalanine]
[6]
  colonic SLC6A4 expression: decrease in SLC6A4
[1]; [13]
  serum 5-HT: blocking increases
[1]; [14]
  serum 5-HT levels: sufficiently blocks the ability of Sp to elevate
[7]; [13]
  5-HT staining in colonic ECs: blocking increases
[7]; [14]
  5-HT staining in ECs: sufficiently blocks
[4]; Sp-colonized mice, PCPA intrarectally
  colonic TPH1 expression: compensatory increase in colonic TPH1
[8]
  Sp effect on platelet aggregation: attenuated
[9]
  IPAN activation: decreases IPAN activation
[2]; [13]
  colon 5-HT: blocking increases
[2]; [14]
  colon 5-HT levels: sufficiently blocks the ability of Sp to elevate
[10]
  Sp effect on bleeding time: attenuated
